In publication PMC8201735 (BMC Pharmacology & Toxicology, 2021):
“And” between values parts separate entries of the source, which are not always exact repeats. Equal entries are not always repeated. Where two headings read alike, the source gives them in different places.

What was measured:
Body weight = type: in vivo, human; conditions: for Change from baseline in body weight, Mean (SD): Day 2
Protocol: Body weight measurement was performed at screening and during inpatient Days- 1, 2, 4, 8, 13, and 14.

subjects with T2DM [1] = assay: Surveillance for lactic acidosis: fasting plasma lactic acid concentration; type: in vivo, human
Protocol: The samples for acidosis analysis were collected at screening (following an overnight fast and prior to morning dose), once during the run-in phase, at baseline (Day- 1), mornings (prior to first dose and breakfast) of Days 1, 2, 3, and 4 (inpatient) and Days 6, 8, and 10 (outpatient) and Days 13 and 14 (inpatient). Subjects were not allowed to do rigorous exercise or physical labor during the treatment phase of the study and instructed to limit exercise 12 h before sampling.
(§1) Descriptive statistics were used to summarize baseline demographics, safety data, and pharmacokinetic parameters. Geometric mean and % CVb (between-subject coefficient of variation) were calculated for all pharmacokinetic parameters except tmax. Comparisons of placebo with each active dose of RE were assessed in terms of change from baseline in fasting plasma lactate acid using repeated measures analysis of covariance model. The model included terms for baseline measurement, visit, treatment and visit-by-treatment interaction. The same model was applied to change from baseline in weighted means of day-time, night-time and 0–24 h of blood pressures. Within group treatment comparison was performed using mixed model on log transformed Cmax and AUC (0-last).

[2] = Plasma pharmacokinetics of metformin with and without RE; type: in vivo, human; conditions: RE 500 mg or 750 mg BID with metformin
Protocol: as §1, with “PK analysis was conducted by […] (Chapel Hill, NC, USA), under the direction of Clinical Pharmacokinetics/Modelling and Simulation, GSK using the non-compartmental analysis Model 200 (for extra vascular administration) of WinNonlin Professional Edition version 4.1 (Pharsight Corporation, Mountain View, CA). […] Descriptive” for “Descriptive”, “0-24” for “0–24”

subjects with T2DM [3] = assay: Oral glucose tolerance test (75 g): weighted mean plasma glucose and insulin; type: in vivo, human
Protocol: Oral glucose tolerance testing was performed on Day 1 and Day 13 using a 75 g oral glucose solution. Blood samples for the measurement of insulin and glucose were taken immediately before drug dosing (within 5 min of drug dosing), and at 30 min, 1, 1.5, 2, 3, 4, and 6 h following drug dosing.

[4] = Plasma pharmacokinetics of remogliflozin etabonate and its metabolites during metformin treatment; type: in vivo, human; conditions: for AUC(0-t) / Cmax / Tmax: human, plasma, oral; for AUC(0-t): read-out: AUC (0-last), geometric mean (%CVb); for Cmax: read-out: Cmax, geometric mean (%CVb); for Tmax: read-out: tmax, median (range)
Protocol: as §1, with “PK analysis was conducted by […] (Chapel Hill, NC, USA), under the direction of Clinical Pharmacokinetics/Modelling and Simulation, GSK using the non-compartmental analysis Model 200 (for extra vascular administration) of WinNonlin Professional Edition version 4.1 (Pharsight Corporation, Mountain View, CA). […] Descriptive” for “Descriptive”, “0-24” for “0–24”

subjects with T2DM [5] = assay: Ambulatory blood pressure monitoring; type: in vivo, human; conditions: for Decrease in diastolic blood pressure at nighttime, Day 13, compared to placebo (metformin alone) / Decrease in systolic blood pressure at nighttime, Day 13, compared to placebo (metformin alone): stated as magnitude of decrease
Protocol: The ambulatory blood pressure was monitored for […] during inpatient days (beginning Day 1 at 08.00, Day 2 at 08.00 and Day 13 at 08.00). The unit was programmed to take blood pressure readings every 10 min from 08.00 to 10.00, every 20 min from 10.00 to 22.00, and every 30 min from 22.00 to 08.00 the following morning.
as §1

subjects with T2DM [6] = assay: Oral glucose tolerance test (75 g): weighted mean plasma glucose and insulin; type: in vivo, human; conditions: Day -1 (baseline)
[7] = parameters: method as in PMID 25934577; conditions: repeat dosing PK; cited from earlier work
T2DM patients = test system: T2DM patients; parameters: method as in PMID 32162274; conditions: T2DM patients on daily metformin therapy (> 1500 mg) over 24 weeks; cited from earlier work
[8] = Study Day 2, RE 750 mg BID + metformin
[9] = Study Day 6, RE 750 mg BID + metformin
[10] = 500 mg, Day 1, after RE 500 mg BID + metformin, N = 16
[11] = 500 mg, Day 13, after RE 500 mg BID + metformin, N = 15
[12] = 750 mg, Day 1, after RE 750 mg BID + metformin, N = 17
[13] = 750 mg, Day 13, after RE 750 mg BID + metformin, N = 16
[14] = 24 h, RE 500 mg BID + metformin, N = 14
[15] = 24 h, RE 750 mg BID + metformin, N = 14
[16] = Daytime (10 am to 8 pm), RE 500 mg BID + metformin
[17] = Daytime (10 am to 8 pm), RE 750 mg BID + metformin
[18] = Nighttime (midnight to 6 am), RE 500 mg BID + metformin
[19] = Nighttime (midnight to 6 am), RE 750 mg BID + metformin

Compound: CCOC(=O)OC[C@H]1O[C@@H](Oc2nn(C(C)C)c(C)c2Cc2ccc(OC(C)C)cc2)[C@H](O)[C@@H](O)[C@@H]1O [RE, remogliflozin etabonate]
- Change from baseline in body weight, Mean (SD) (Body weight; RE 500 mg + Metformin): −1.03 (0.994) kg
- Change from baseline in body weight, Mean (SD) (Body weight; RE 750 mg + Metformin): −1.04 (1.210) kg
- Additional body weight lost in the RE groups compared to metformin alone (Body weight; by Day 14, RE 500 or 750 mg BID + metformin vs placebo + metformin): ~1 kg
- Fasting plasma lactic acid, maximum on-therapy absolute values, Mean (SD) (subjects with T2DM [1]; RE 500 mg BID + metformin): 1.220 (0.2684) mmol/L
- Fasting plasma lactic acid, maximum on-therapy change from baseline, Mean (SD) (subjects with T2DM [1]; RE 500 mg BID + metformin): 0.234 (0.3717) mmol/L
- Fasting plasma lactic acid, maximum on-therapy absolute values, Mean (SD) (subjects with T2DM [1]; RE 750 mg BID + metformin): 1.508 (0.4389) mmol/L
- Fasting plasma lactic acid, maximum on-therapy change from baseline, Mean (SD) (subjects with T2DM [1]; RE 750 mg BID + metformin): 0.249 (0.5934) mmol/L
- Fasting plasma lactic acid change from baseline, Mean (SD) (subjects with T2DM [1]; Study Day 2, RE 500 mg BID + metformin): −0.07 (0.248) mmol/L
- Fasting plasma lactic acid change from baseline, Difference vs. placebo (95% CI), ANCOVA (subjects with T2DM [1]; [8]): −0.246(− 0.445, − 0.047) mmol/L
- Fasting plasma lactic acid change from baseline, Mean (SD) (subjects with T2DM [1]; [8]): −0.17 (0.419) mmol/L
- Fasting plasma lactic acid change from baseline, Difference vs. placebo (95% CI), ANCOVA (subjects with T2DM [1]; Study Day 6, RE 500 mg BID + metformin): −0.380 (− 0.603, − 0.157) mmol/L
- Fasting plasma lactic acid change from baseline, Mean (SD) (subjects with T2DM [1]; Study Day 6, RE 500 mg BID + metformin, n = 15): −0.26 (0.310) mmol/L
- Fasting plasma lactic acid change from baseline, Difference vs. placebo (95% CI), ANCOVA (subjects with T2DM [1]; [9]): −0.254(− 0.472, − 0.036) mmol/L
- Fasting plasma lactic acid change from baseline, Mean (SD) (subjects with T2DM [1]; [9]): −0.26 (0.538) mmol/L
- Fasting plasma lactic acid change from baseline, Difference vs. placebo (95% CI), ANCOVA (subjects with T2DM [1]; Study Day 13, RE 500 mg BID + metformin): −0.191 (− 0.414, 0.031) mmol/L
- Fasting plasma lactic acid change from baseline, Mean (SD) (subjects with T2DM [1]; Study Day 13, RE 500 mg BID + metformin, n = 15): −0.15 (0.485) mmol/L
- Fasting plasma lactic acid change from baseline, Difference vs. placebo (95% CI), ANCOVA (subjects with T2DM [1]; Study Day 13, RE 750 mg BID + metformin): −0.255 (− 0.475, − 0.034) mmol/L
- Fasting plasma lactic acid change from baseline, Mean (SD) (subjects with T2DM [1]; Study Day 13, RE 750 mg BID + metformin, n = 16): −0.33 (0.398) mmol/L
- Subjects with lactic acid greater than the upper limits of normal (ULN) at any time (subjects with T2DM [1]; receiving RE, not sustained, minimally above ULN): one
- Effect of RE on the pharmacokinetics of metformin [2]: no effect
- Weighted mean plasma glucose following OGTT, Mean (SD) (subjects with T2DM [3]; Day 1 (baseline), RE 500 mg + Metformin): 13 mmol/L and 13.03 (1.929) mmol/L
- Weighted mean plasma glucose following OGTT, Mean (SD) (subjects with T2DM [3]; Day 1 (baseline), RE 750 mg + Metformin): 11 mmol/L and 11.49 (3.536) mmol/L
- Weighted mean plasma glucose following OGTT, Mean (SD) (subjects with T2DM [3]; Day 13, RE 500 mg + Metformin): 9 mmol/L and 9.45 (1.502) mmol/L
- Weighted mean plasma insulin following OGTT, Mean (SD) (subjects with T2DM [3]; Day 13, RE 500 mg + Metformin): 142.15 (67.626) pmol/L
- Weighted mean plasma glucose following OGTT, Mean (SD) (subjects with T2DM [3]; Day 13, RE 750 mg + Metformin): 8 mmol/L and 8.84 (1.656) mmol/L
- Weighted mean plasma insulin following OGTT, Mean (SD) (subjects with T2DM [3]; Day 13, RE 750 mg + Metformin): 171.57 (74.178) pmol/L
- Weighted mean plasma glucose, change from baseline, Mean (SD) (subjects with T2DM [3]; RE 500 mg + Metformin): −3.50 (2.012) mmol/L
- Weighted mean plasma insulin, change from baseline, Mean (SD) (subjects with T2DM [3]; RE 500 mg + Metformin): −44.80 (52.746) pmol/L
- Weighted mean plasma glucose, change from baseline, Mean (SD) (subjects with T2DM [3]; RE 750 mg + Metformin): −2.77 (2.262) mmol/L
- Weighted mean plasma insulin, change from baseline, Mean (SD) (subjects with T2DM [3]; RE 750 mg + Metformin): −18.95 (47.360) pmol/L
- AUC(0-last) accumulation ratio Day 13 versus Day 1, point estimate (90% CI) ([4]; RE 500 mg + Metformin): 0.99 (0.857–1.15)
- AUC(0-last) accumulation ratio Day 13 versus Day 1, point estimate (90% CI) ([4]; RE 750 mg + Metformin): 1.02 (0.861–1.21)
- AUC(0-t) ([4]; 500 mg, Day 1, RE 500 mg BID + metformin, N = 16): 70.9 ng·h/mL
- Cmax [4, 10]: 64.8 ng/mL
- Tmax [4, 10]: 37.8 min
- AUC(0-t) ([4]; 500 mg, Day 13, RE 500 mg BID + metformin, N = 15): 73.5 ng·h/mL
- Cmax [4, 11]: 53.3 ng/mL
- Tmax [4, 11]: 30 min
- AUC(0-t) ([4]; 750 mg, Day 1, RE 750 mg BID + metformin, N = 17): 121 ng·h/mL
- Cmax [4, 12]: 137 ng/mL
- Tmax [4, 12]: 30 min
- AUC(0-t) ([4]; 750 mg, Day 13, RE 750 mg BID + metformin, N = 16): 121 ng·h/mL
- Cmax [4, 13]: 101 ng/mL
- Tmax [4, 13]: 28.8 min
- Ambulatory diastolic BP, adjusted mean change from baseline to Day 13 vs. placebo (subjects with T2DM [5]; [14]): −2.0; p = 0.256 mmHg
- Ambulatory systolic BP, adjusted mean change from baseline to Day 13 vs. placebo (subjects with T2DM [5]; [14]): −2.8; p = 0.303 mmHg
- Ambulatory diastolic BP, adjusted mean change from baseline to Day 13 vs. placebo (subjects with T2DM [5]; [15]): −3.3; p = 0.062 mmHg
- Ambulatory systolic BP, adjusted mean change from baseline to Day 13 vs. placebo (subjects with T2DM [5]; [15]): −4.0; p = 0.131 mmHg
- Ambulatory diastolic BP, adjusted mean change from baseline to Day 13 vs. placebo (subjects with T2DM [5]; [16]): −1.8; p = 0.461 mmHg
- Ambulatory systolic BP, adjusted mean change from baseline to Day 13 vs. placebo (subjects with T2DM [5]; [16]): −3.4; p = 0.291 mmHg
- Ambulatory diastolic BP, adjusted mean change from baseline to Day 13 vs. placebo (subjects with T2DM [5]; [17]): −1.3; p = 0.586 mmHg
- Ambulatory systolic BP, adjusted mean change from baseline to Day 13 vs. placebo (subjects with T2DM [5]; [17]): −2.4; p = 0.441 mmHg
- Ambulatory diastolic BP, adjusted mean change from baseline to Day 13 vs. placebo (subjects with T2DM [5]; [18]): −6.5; p = 0.006 mmHg
- Ambulatory systolic BP, adjusted mean change from baseline to Day 13 vs. placebo (subjects with T2DM [5]; [18]): −8.4; p = 0.020 mmHg
- Ambulatory diastolic BP, adjusted mean change from baseline to Day 13 vs. placebo (subjects with T2DM [5]; [19]): −4.8; p = 0.043 mmHg
- Ambulatory systolic BP, adjusted mean change from baseline to Day 13 vs. placebo (subjects with T2DM [5]; [19]): −7.1; p = 0.047 mmHg
- Decrease in diastolic blood pressure at nighttime, Day 13, compared to placebo (metformin alone) (subjects with T2DM [5]; RE 500 mg BID + metformin): 6.5 mmHg
- Decrease in systolic blood pressure at nighttime, Day 13, compared to placebo (metformin alone) (subjects with T2DM [5]; RE 500 mg BID + metformin): 8.4 mmHg
- Decrease in diastolic blood pressure at nighttime, Day 13, compared to placebo (metformin alone) (subjects with T2DM [5]; RE 750 mg BID + metformin): 4.8 mmHg
- Decrease in systolic blood pressure at nighttime, Day 13, compared to placebo (metformin alone) (subjects with T2DM [5]; RE 750 mg BID + metformin): 7.1 mmHg
- Weighted mean plasma insulin following OGTT, Mean (SD) (subjects with T2DM [6]; RE 500 mg + Metformin): 190.96 (100.420) pmol/L
- Weighted mean plasma insulin following OGTT, Mean (SD) (subjects with T2DM [6]; RE 750 mg + Metformin): 191.52 (83.045) pmol/L
- Increase in AUC on repeat dosing [7]: 10%
- Increase in t1/2 on repeat dosing [7]: 10%
- Glycemic efficacy (T2DM patients): comparable to dapagliflozin
